Laboratory results reported in PubChem BioAssay (NCI).
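Test compounds were applied to cells in 96-well plates for 48 hours at 5 doses. Abbreviation: GI50, concentration required for 50% inhibition of growth. At the TGI there is no net growth.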 Where a SMILES comes first, the peptide text is derived from it. [ ]: non-standard residue; d: D form. Phe(ol) = N[C@H](CO)Cc1ccccc1; dIva = CC[C@@](C)(N)C(=O)O; Aib = CC(C)(N)C(=O)O

How the values were obtained:
Assay in all cases: DTP human tumour cell line panel, 48 h
786-0 renal = system: 786-0 renal
A498 renal = system: A498 renal
A549 NSCLC = system: A549 NSCLC
ACHN renal = system: ACHN renal
BT-549 breast = system: BT-549 breast
CCRF-CEM leukemia = system: CCRF-CEM leukemia
COLO 205 colon = system: COLO 205 colon
EKVX NSCLC = system: EKVX NSCLC
HCC-2998 colon = system: HCC-2998 colon
HCT-116 colon = system: HCT-116 colon
HCT-15 colon = system: HCT-15 colon
HL-60(TB) leukemia = system: HL-60(TB) leukemia
HOP-62 NSCLC = system: HOP-62 NSCLC
HOP-92 NSCLC = system: HOP-92 NSCLC
HS 578T breast = system: HS 578T breast
HT29 colon = system: HT29 colon
IGROV1 ovarian = system: IGROV1 ovarian
K-562 leukemia = system: K-562 leukemia
KM12 colon = system: KM12 colon
LOX IMVI melanoma = system: LOX IMVI melanoma
M14 melanoma = system: M14 melanoma
MALME-3M melanoma = system: MALME-3M melanoma
MCF7 breast = system: MCF7 breast
MDA-MB-231 breast = system: MDA-MB-231 breast
MDA-MB-435 = system: MDA-MB-435
MOLT-4 leukemia = system: MOLT-4 leukemia
NCI-H226 lung = system: NCI-H226 lung
NCI-H23 lung = system: NCI-H23 lung
NCI-H460 lung = system: NCI-H460 lung
NCI-H522 lung = system: NCI-H522 lung
NCI/ADR-RES ovarian = system: NCI/ADR-RES ovarian
OVCAR-3 ovarian = system: OVCAR-3 ovarian
OVCAR-4 ovarian = system: OVCAR-4 ovarian
OVCAR-5 ovarian = system: OVCAR-5 ovarian
OVCAR-8 ovarian = system: OVCAR-8 ovarian
PC-3 prostate = system: PC-3 prostate
RPMI-8226 leukemia = system: RPMI-8226 leukemia
RXF 393 renal = system: RXF 393 renal
SF-268 CNS = system: SF-268 CNS
SF-295 CNS = system: SF-295 CNS
SF-539 CNS = system: SF-539 CNS
SK-MEL-2 melanoma = system: SK-MEL-2 melanoma
SK-MEL-28 melanoma = system: SK-MEL-28 melanoma
SK-MEL-5 melanoma = system: SK-MEL-5 melanoma
SK-OV-3 ovarian = system: SK-OV-3 ovarian
SN12C renal = system: SN12C renal
SNB-19 CNS = system: SNB-19 CNS
SNB-75 CNS = system: SNB-75 CNS
SR leukemia = system: SR leukemia
SW-620 colon = system: SW-620 colon
T-47D breast = system: T-47D breast
TK-10 renal = system: TK-10 renal
U251 CNS = system: U251 CNS
UACC-257 melanoma = system: UACC-257 melanoma
UACC-62 melanoma = system: UACC-62 melanoma
UO-31 renal = system: UO-31 renal

CC[C@@](C)(NC(=O)C(C)(C)NC(=O)[C@@H](NC(=O)[C@@H]1CCCN1C(=O)C(C)(C)NC(=O)[C@H](CC(C)C)NC(=O)CNC(=O)C(C)(C)NC(=O)[C@@H](NC(=O)C(C)(C)NC(=O)[C@H](CCC(N)=O)NC(=O)[C@H](C)NC(=O)C(C)(C)NC(=O)[C@H](C)NC(=O)C(C)(C)NC(=O)[C@@H]1CCCN1C(=O)C(C)(C)NC(C)=O)C(C)C)C(C)C)C(=O)N[C@@H](CCC(N)=O)C(=O)N[C@@H](CCC(N)=O)C(=O)N[C@H](CO)Cc1ccccc1 (Ac-[Aib]P[Aib]A[Aib]AQ[Aib]V[Aib]GL[Aib]PV[Aib][dIva]QQ[Phe(ol)])
GI50 (786-0 renal): > 4.25 µM
TGI (786-0 renal): > 4.25 µM
GI50 (A498 renal): > 4.25 µM
TGI (A498 renal): > 4.25 µM
GI50 (A549 NSCLC): 2.39 µM
TGI (A549 NSCLC): > 4.25 µM
GI50 (ACHN renal): > 4.25 µM
TGI (ACHN renal): > 4.25 µM
GI50 (BT-549 breast): 0.966 µM
TGI (BT-549 breast): 2.67 µM
GI50 (CCRF-CEM leukemia): 2.93 µM
TGI (CCRF-CEM leukemia): > 4.25 µM
GI50 (COLO 205 colon): 1.29 µM
TGI (COLO 205 colon): > 4.25 µM
GI50 (EKVX NSCLC): > 4.25 µM
TGI (EKVX NSCLC): > 4.25 µM
GI50 (HCC-2998 colon): 1.96 µM
TGI (HCC-2998 colon): > 4.25 µM
GI50 (HCT-116 colon): 1.75 µM
TGI (HCT-116 colon): > 4.25 µM
GI50 (HCT-15 colon): > 4.25 µM
TGI (HCT-15 colon): > 4.25 µM
GI50 (HL-60(TB) leukemia): 0.96 µM
TGI (HL-60(TB) leukemia): 2.08 µM
GI50 (HOP-62 NSCLC): > 4.25 µM
TGI (HOP-62 NSCLC): > 4.25 µM
GI50 (HOP-92 NSCLC): 1.06 µM
TGI (HOP-92 NSCLC): 2.95 µM
GI50 (HS 578T breast): 2.48 µM
TGI (HS 578T breast): > 4.25 µM
GI50 (HT29 colon): 1.72 µM
TGI (HT29 colon): > 4.25 µM
GI50 (IGROV1 ovarian): 2.51 µM
TGI (IGROV1 ovarian): > 4.25 µM
GI50 (K-562 leukemia): 2.4 µM
TGI (K-562 leukemia): > 4.25 µM
GI50 (KM12 colon): 1.47 µM
TGI (KM12 colon): > 4.25 µM
GI50 (LOX IMVI melanoma): 1.36 µM
TGI (LOX IMVI melanoma): > 4.25 µM
GI50 (M14 melanoma): > 4.25 µM
TGI (M14 melanoma): > 4.25 µM
GI50 (MALME-3M melanoma): 0.856 µM
TGI (MALME-3M melanoma): 2.14 µM
GI50 (MCF7 breast): 0.215 µM
TGI (MCF7 breast): > 4.25 µM
GI50 (MDA-MB-231 breast): 1.43 µM
TGI (MDA-MB-231 breast): > 4.25 µM
GI50 (MDA-MB-435): 1.16 µM
TGI (MDA-MB-435): > 4.25 µM
GI50 (MOLT-4 leukemia): 1.47 µM
TGI (MOLT-4 leukemia): > 4.25 µM
GI50 (NCI-H226 lung): > 4.25 µM
TGI (NCI-H226 lung): > 4.25 µM
GI50 (NCI-H23 lung): 1 µM
TGI (NCI-H23 lung): > 4.25 µM
GI50 (NCI-H460 lung): 1.52 µM
TGI (NCI-H460 lung): > 4.25 µM
GI50 (NCI-H522 lung): 0.873 µM
TGI (NCI-H522 lung): 4.03 µM
GI50 (NCI/ADR-RES ovarian): > 4.25 µM
TGI (NCI/ADR-RES ovarian): > 4.25 µM
GI50 (OVCAR-3 ovarian): 1.14 µM
TGI (OVCAR-3 ovarian): > 4.25 µM
GI50 (OVCAR-4 ovarian): 1.57 µM
TGI (OVCAR-4 ovarian): > 4.25 µM
GI50 (OVCAR-5 ovarian): 1.64 µM
TGI (OVCAR-5 ovarian): > 4.25 µM
GI50 (OVCAR-8 ovarian): > 4.25 µM
TGI (OVCAR-8 ovarian): > 4.25 µM
GI50 (PC-3 prostate): 1.66 µM
TGI (PC-3 prostate): > 4.25 µM
GI50 (RPMI-8226 leukemia): 0.265 µM
TGI (RPMI-8226 leukemia): 2.41 µM
GI50 (RXF 393 renal): 0.964 µM
TGI (RXF 393 renal): 3.11 µM
GI50 (SF-268 CNS): 1.63 µM
TGI (SF-268 CNS): > 4.25 µM
GI50 (SF-295 CNS): > 4.25 µM
TGI (SF-295 CNS): > 4.25 µM
GI50 (SF-539 CNS): 1.53 µM
TGI (SF-539 CNS): > 4.25 µM
GI50 (SK-MEL-2 melanoma): 1.37 µM
TGI (SK-MEL-2 melanoma): > 4.25 µM
GI50 (SK-MEL-28 melanoma): 1.66 µM
TGI (SK-MEL-28 melanoma): > 4.25 µM
GI50 (SK-MEL-5 melanoma): 1.17 µM
TGI (SK-MEL-5 melanoma): 3.62 µM
GI50 (SK-OV-3 ovarian): 1.55 µM
TGI (SK-OV-3 ovarian): > 4.25 µM
GI50 (SN12C renal): 0.789 µM
TGI (SN12C renal): > 4.25 µM
GI50 (SNB-19 CNS): 1.27 µM
TGI (SNB-19 CNS): > 4.25 µM
GI50 (SNB-75 CNS): 1.15 µM
TGI (SNB-75 CNS): > 4.25 µM
GI50 (SR leukemia): 1.41 µM
TGI (SR leukemia): > 4.25 µM
GI50 (SW-620 colon): 3.34 µM
TGI (SW-620 colon): > 4.25 µM
GI50 (T-47D breast): 0.974 µM
TGI (T-47D breast): 4.02 µM
GI50 (TK-10 renal): > 4.25 µM
TGI (TK-10 renal): > 4.25 µM
GI50 (U251 CNS): 1.61 µM
TGI (U251 CNS): > 4.25 µM
GI50 (UACC-257 melanoma): 1.21 µM
TGI (UACC-257 melanoma): > 4.25 µM
GI50 (UACC-62 melanoma): 1.73 µM
TGI (UACC-62 melanoma): > 4.25 µM
GI50 (UO-31 renal): > 4.25 µM
TGI (UO-31 renal): > 4.25 µM
